Measurements published in patent EP4345092A1, “NITROBENZAMIDE COMPOUNDS, METHODS AND USES THEREOF” (Faculdade de Farmácia da Universidade de Lisboa, priority 2022, dated 2024).
Values after ≈ are worked out from the molar mass of the structure shown. Values joined by “and” are separate entries in the source; they are usually repeats but may differ in a detail not shown here. Identical values can stand only once. Like-named read-outs stand apart in the source and are kept apart here.

Legend:
[1] = test system: Mycobacterium tuberculosis H37Rv (ATCC 27294); assay: Minimum Inhibitory Concentration (MIC), broth microdilution in 96-well plates; assay type: cell-based
[2] = test system: Mycobacterium tuberculosis H37Rv (ATCC 27294); assay: microbe, parasite or virus in culture; assay type: cell-based; conditions: 504 h

Structure (SMILES) | MIC [1] | MBC [2] | MIC ([1]; M. tuberculosis H37Rv, 10th day of incubation, concentration with no visible turbidity, read-out: MIC) | MIC ([1]; M. tuberculosis H37Rv, 10th day of incubation, same MIC expressed in nM, read-out: MIC)
O=C(NCCOc1ccc(-c2ccccc2)cc1)c1cc([N+](=O)[O-])cc([N+](=O)[O-])c1 [Compound 1] | 0.063 µg/mL and 0.155 µM | – | – | –
O=C(NCCOc1ccc(Br)cc1)c1cc([N+](=O)[O-])cc([N+](=O)[O-])c1 [Compound 5] | 0.063 µg/mL and 0.154 µM | – | – | –
O=C(NCCOc1ccc(C(F)(F)F)cc1)c1cc([N+](=O)[O-])cc([N+](=O)[O-])c1 [Compound 6] | 0.125 µg/mL and 0.313 µM | – | – | –
O=C(NCCOc1ccc(Cc2ccccc2)cc1)c1cc([N+](=O)[O-])cc([N+](=O)[O-])c1 [Compound 7] | 0.063 µg/mL and 0.149 µM | – | – | –
O=C(NCCCOc1ccc(-c2ccccc2)cc1)c1cc([N+](=O)[O-])cc([N+](=O)[O-])c1 [Compound 8, N-(3-(4-phenylphenoxy)propyl)-3,5-dinitrobenzamide] | 0.063 µg/mL and 0.149 µM | 0.125 µg/mL (≈ 0.297 µM) | – | –
COc1ccc(OCCCNC(=O)c2cc([N+](=O)[O-])cc([N+](=O)[O-])c2)cc1 [Compound 9, N-(3-(4-methoxyphenoxy)propyl)-3,5-dinitrobenzamide] | 0.063 µg/mL and 0.168 µM | 0.125 µg/mL (≈ 0.333 µM) | – | –
O=C(NCCCOc1ccc(OC(F)(F)F)cc1)c1cc([N+](=O)[O-])cc([N+](=O)[O-])c1 [Compound 10, N-(3-(4-trifluoromethoxyphenoxy)propyl)-3,5-dinitrobenzamide] | 0.063 µg/mL and 0.147 µM | 0.25 µg/mL (≈ 0.582 µM) | – | –
O=C(NCCCOc1ccc(F)cc1)c1cc([N+](=O)[O-])cc([N+](=O)[O-])c1 [Compound 11, N-(3-(4-fluorophenoxy)propyl)-3,5-dinitrobenzamide] | 0.063 µg/mL and 0.173 µM | 0.125 µg/mL (≈ 0.344 µM) | – | –
O=C(NCCCOc1ccc(C(F)(F)F)cc1)c1cc([N+](=O)[O-])cc([N+](=O)[O-])c1 [Compound 12, N-(3-(4-trifluoromethylphenoxy)propyl)-3,5-dinitrobenzamide] | 0.125 µg/mL and 0.302 µM | – | – | –
O=C(NCCCOc1ccccc1)c1cc([N+](=O)[O-])cc([N+](=O)[O-])c1 [Compound 13, N-(3-(phenoxy)propyl)-3,5-dinitrobenzamide] | 0.063 µg/mL and 0.182 µM | 0.125 µg/mL (≈ 0.362 µM) | – | –
O=C(NCCCCCOc1ccc(-c2ccccc2)cc1)c1cc([N+](=O)[O-])cc([N+](=O)[O-])c1 [Compound 14, N-(5-(4-phenylphenoxy)pentyl)-3,5-dinitrobenzamide] | 0.063 µg/mL and 0.14 µM | 0.125 µg/mL (≈ 0.278 µM) | – | –
COc1ccc(OCCCCCNC(=O)c2cc([N+](=O)[O-])cc([N+](=O)[O-])c2)cc1 [Compound 15, N-(5-(4-methoxyphenoxy)pentyl)-3,5-dinitrobenzamide] | 0.063 µg/mL and 0.156 µM | 0.125 µg/mL (≈ 0.31 µM) | – | –
O=C(NCCCCCOc1ccc(OC(F)(F)F)cc1)c1cc([N+](=O)[O-])cc([N+](=O)[O-])c1 [Compound 16, N-(5-(4-trifluoromethoxyphenoxy)pentyl)-3,5-dinitrobenzamide] | 0.031 µg/mL and 0.0678 µM | 0.063 µg/mL (≈ 0.138 µM) | – | –
O=C(NCCCCCOc1ccc([N+](=O)[O-])cc1)c1cc([N+](=O)[O-])cc([N+](=O)[O-])c1 [Compound 17, N-(5-(4-nitrophenoxy)pentyl)-3,5-dinitrobenzamide] | 0.031 µg/mL and 0.0741 µM | 0.125 µg/mL (≈ 0.299 µM) | – | –
O=C(NCCCCCOc1ccc(F)cc1)c1cc([N+](=O)[O-])cc([N+](=O)[O-])c1 [Compound 18, N-(5-(4-fluorophenoxy)pentyl)-3,5-dinitrobenzamide] | 0.031 µg/mL and 0.0792 µM | 0.063 µg/mL (≈ 0.161 µM) | – | –
O=C(NCCCCCOc1ccc(Cl)cc1)c1cc([N+](=O)[O-])cc([N+](=O)[O-])c1 [Compound 19, N-(5-(4-chlorophenoxy)pentyl)-3,5-dinitrobenzamide] | 0.016 µg/mL and 0.0392 µM | 0.063 µg/mL (≈ 0.154 µM) | – | –
O=C(NCCCCCOc1ccc(C(F)(F)F)cc1)c1cc([N+](=O)[O-])cc([N+](=O)[O-])c1 [Compound 20, N-(5-(4-trifluoromethylphenoxy)pentyl)-3,5-dinitrobenzamide] | 0.031 µg/mL and 0.0702 µM | 0.063 µg/mL (≈ 0.143 µM) | – | –
O=C(NCCCCCOc1ccc(Cc2ccccc2)cc1)c1cc([N+](=O)[O-])cc([N+](=O)[O-])c1 [Compound 21, N-(5-(4-benzylphenoxy)pentyl)-3,5-dinitrobenzamide] | 0.063 µg/mL and 0.136 µM | 0.25 µg/mL (≈ 0.539 µM) | – | –
O=C(NCCCCCOc1ccc(Br)cc1)c1cc([N+](=O)[O-])cc([N+](=O)[O-])c1 [Compound 22, N-(5-(4-bromophenoxy)pentyl)-3,5-dinitrobenzamide] | 0.031 µg/mL and 0.0685 µM | 0.063 µg/mL (≈ 0.139 µM) | – | –
O=C(NCCCCCOc1ccccc1)c1cc([N+](=O)[O-])cc([N+](=O)[O-])c1 [Compound 23, N-(5-(phenoxy)pentyl)-3,5-dinitrobenzamide] | 0.031 µg/mL and 0.083 µM | 0.063 µg/mL (≈ 0.169 µM) | – | –

Structure (SMILES) | MIC [1] | MBC [2] | MIC ([1]; M. tuberculosis H37Rv, 10th day of incubation, concentration with no visible turbidity, read-out: MIC) | MIC ([1]; M. tuberculosis H37Rv, 10th day of incubation, same MIC expressed in nM, read-out: MIC)
COc1ccc(OCCCCCCCCCNC(=O)c2cc([N+](=O)[O-])cc([N+](=O)[O-])c2)cc1 [Compound 24, N-(9-(4-methoxyphenoxy)nonyl)-3,5-dinitrobenzamide] | 0.016 µg/mL and 0.0348 µM | 0.031 µg/mL (≈ 0.0675 µM) | – | –
COc1ccc(OCCCCCCCCCCCNC(=O)c2cc([N+](=O)[O-])cc([N+](=O)[O-])c2)cc1 [Compound 26, N-(11-(4-methoxyphenoxy)undecyl)-3,5-dinitrobenzamide] | 0.063 µg/mL and 0.129 µM | 0.125 µg/mL (≈ 0.256 µM) | – | –
C[N+]1(C)CCN(C(=O)c2cc([N+](=O)[O-])cc([N+](=O)[O-])c2)CC1 [Compound 28, 4-(3,5-dinitrobenzoyl)-1,1-dimethylpiperazin-1-ium] | > 16 µg/mL | > 16 µg/mL | – | –
O=C(c1cc([N+](=O)[O-])cc([N+](=O)[O-])c1)N1CCN(Cc2ccccc2)CC1 [Compound 29, (3,5-dinitrophenyl)-4-benzylpiperazin-1-yl-methanone] | 2 µg/mL and 5.4 µM | 4 µg/mL (≈ 10.8 µM) | – | –
O=C(c1cc([N+](=O)[O-])cc([N+](=O)[O-])c1)N1CCC(Cc2ccccc2)CC1 [Compound 31, (3,5-dinitrophenyl)-4-benzylpiperidin-1-yl-methanone] | 0.5 µg/mL and 1.35 µM | 2 µg/mL (≈ 5.41 µM) | – | –
COc1ccc(OC2CCN(C(=O)c3cc([N+](=O)[O-])cc([N+](=O)[O-])c3)CC2)cc1 [Compound 32, (3,5-dinitrophenyl)(4-(4-methoxyphenoxy)piperidin-1-yl)methanone] | 2 µg/mL and 4.98 µM | – | – | –
O=C(c1cc([N+](=O)[O-])cc([N+](=O)[O-])c1)N1CCC(O)CC1 [Compound 33, (3,5-dinitrophenyl)-4-hydroxypiperidin-1-yl-methanone] | > 16 µg/mL | 16 µg/mL (≈ 54.2 µM) | – | –
O=C(c1cc([N+](=O)[O-])cc([N+](=O)[O-])c1)N1CCCCC1 [Compound 34, (3,5-dinitrophenyl)-piperidin-1-yl-methanone] | > 16 µg/mL | 16 µg/mL (≈ 57.3 µM) | – | –
O=C(c1cc([N+](=O)[O-])cc([N+](=O)[O-])c1)N1CCOCC1 [Compound 35, (3,5-dinitrophenyl)(morpholino)methanone] | > 16 µg/mL | > 16 µg/mL | – | –
CCCCCCCCCOCCCCCCCCCNC(=O)c1cc([N+](=O)[O-])cc([N+](=O)[O-])c1 [Compound 36, N-(9-(nonyloxy)nonyl)-3,5-dinitrobenzamide] | 0.063 µg/mL and 0.127 µM | – | – | –
O=C(NCCCCCCCCCO)c1cc([N+](=O)[O-])cc([N+](=O)[O-])c1 [Compound 37, N-(9-hydroxynonyl)-3,5-dinitrobenzamide] | 0.25 µg/mL and 0.707 µM | – | – | –
O=C(NCCCCCO)c1cc([N+](=O)[O-])cc([N+](=O)[O-])c1 [Compound 38, N-(5-hydroxypentyl)-3,5-dinitrobenzamide] | 2 µg/mL and 6.73 µM | – | – | –
O=C(NCCCO)c1cc([N+](=O)[O-])cc([N+](=O)[O-])c1 [Compound 39, N-(3-hydroxypropyl)-3,5-dinitrobenzamide] | 4 µg/mL and 14.9 µM | – | – | –
O=C(NCCO)c1cc([N+](=O)[O-])cc([N+](=O)[O-])c1 [Compound 40, N-(2-hydroxyethyl)-3,5-dinitrobenzamide] | 16 µg/mL and 62.7 µM | – | – | –
O=C(NCCCCCCCCCCCO)c1cc([N+](=O)[O-])cc([N+](=O)[O-])c1 [Compound 41, N-(11-hydroxyundecyl)-3,5-dinitrobenzamide] | 0.125 µg/mL and 0.328 µM | 0.25 µg/mL (≈ 0.655 µM) | – | –
O=C(NCCOc1ccccc1)c1cc([N+](=O)[O-])cc(C(F)(F)F)c1 [Compound 42] | – | – | 0.25 µg/mL | 671 nM
O=C(NCCCCCN1CCCCC1)c1cc([N+](=O)[O-])cc([N+](=O)[O-])c1 [Compound 44] | 16 µg/mL and 43.9 µM | > 16 µg/mL | – | –
O=[N+]([O-])c1cc(C2=NCCO2)cc([N+](=O)[O-])c1 [Compound 47, 2-(3,5-dinitrophenyl)-4,5-dihydrooxazole] | 2 µg/mL and 8.43 µM | 4 µg/mL (≈ 16.9 µM) | – | –
O=[N+]([O-])c1cc(C2=NCCCO2)cc([N+](=O)[O-])c1 [Compound 48, 2-(3,5-dinitrophenyl)-5,6-dihydro-4H-1,3-oxazine] | 16 µg/mL and 63.7 µM | > 16 µg/mL | – | –
